Key:
[1] = Selectivity index, ratio IC50 for rat L6 cells to IC50 for multidrug-resistant Plasmodium falciparum K1 infected in human red blood cells; type: functional
L6 = test: Cytotoxicity at rat L6 cells after 72 hrs by microplate alamar blue assay; type: cell-based
[2] = Distribution coefficient, log D of the compound at pH 7.4; type: physicochemical; settings: octanol/water
Plasmodium falciparum [3] = test: microbe, parasite or virus in culture; settings: K1
Description: (§1) Antimalarial activity against multidrug-resistant Plasmodium falciparum K1 infected in human red blood cells assessed as 3H-hypoxanthine incorporation after 48 hrs by liquid scintillation counting

Plasmodium falciparum [4] = test: microbe, parasite or virus in culture; settings: NF54
Description: Antimalarial activity against Plasmodium falciparum NF54

Plasmodium falciparum [5] = test: microbe, parasite or virus in culture; settings: K1; remark: listed apart in the source
Description: Antimalarial activity against Plasmodium falciparum K1

Plasmodium falciparum [6] = test: microbe, parasite or virus in culture; settings: HB3
Description: Antimalarial activity against Plasmodium falciparum HB3

Plasmodium falciparum [7] = test: microbe, parasite or virus in culture; settings: FCR-3/Gambia
Description: Antimalarial activity against Plasmodium falciparum FCR3

Plasmodium falciparum [8] = test: microbe, parasite or virus in culture; settings: Mad20/Papua New Guinea
Description: Antimalarial activity against Plasmodium falciparum Mad20

Plasmodium falciparum [9] = test: microbe, parasite or virus in culture; settings: FC27/Papua New Guinea
Description: Antimalarial activity against Plasmodium falciparum FC27

[10] = Metabolic stability in mouse liver microsomes assessed as intrinsic clearance per mg protein after 60 mins by LC-MS analysis; type: ADME, Microsome
[11] = Metabolic stability in human liver microsomes assessed as intrinsic clearance per mg protein after 60 mins by LC-MS analysis; type: ADME, Microsome
[12] = Metabolic stability in rat liver microsomes assessed as intrinsic clearance per mg protein after 60 mins by LC-MS analysis; type: ADME, Microsome
[13] = Metabolic stability in human liver microsomes assessed as degradation half life after 60 mins by LC-MS analysis; type: ADME, Microsome
[14] = Metabolic stability in rat liver microsomes assessed as degradation half life after 60 mins by LC-MS analysis; type: ADME, Microsome
[15] = Metabolic stability in mouse liver microsomes assessed as degradation half life after 60 mins by LC-MS analysis; type: ADME, Microsome
Plasmodium berghei = test: Antimalarial activity against GFP-transfected Plasmodium berghei strain ANKA infected in NMRI mouse assessed as reduction in parasitemia at 50 mg/kg/day, ip administered for 4 consecutive days measured 24 hrs after last treatment by FACS analysis relative to control; type: functional; design: scale not given: the % may be the effect or the level left; settings: route intraperitoneal
Plasmodium falciparum [16] = tested on: Plasmodium falciparum
Description: as §1

| SMILES | Ratio IC50 [1] | IC50 (L6; Rattus norvegicus, L6, 72 h) | logD [2] | IC50 (Plasmodium falciparum [3]) | further results |
| --- | --- | --- | --- | --- | --- |
| CCN(CC)CCCNc1cc(-c2ccccc2)c(C#N)c2nc3ccccc3n12 | >150 | > 230 µM | 2 | 1530 nM | – |
| Cc1cc(N2CCN(Cc3ccccc3)CC2)n2c(nc3ccccc32)c1C#N | – | – | – | – | IC50 (Plasmodium falciparum [4]): 52 nM; IC50 (Plasmodium falciparum [5]): 50 nM |
| CN(C)CCCNc1cc(-c2cccc(F)c2)c(C#N)c2nc3ccccc3n12 | 29 | 15.4 µM | 1.54 | 530 nM | – |
| CCCc1cc(N2CCN(Cc3ccc(F)cc3)CC2)n2c(nc3ccccc32)c1C#N | – | – | – | – | IC50 (Plasmodium falciparum [4]): 53 nM; IC50 (Plasmodium falciparum [5]): 23 nM |
| CCN(CC)CCCNc1cc(-c2ccc(F)cc2)c(C#N)c2nc3ccccc3n12 | 122 | 86.6 µM | 1.93 | 710 nM | – |
| CN(C)CCNc1cc(C(F)(F)F)c(C#N)c2nc3ccccc3n12 | 13 | 44.7 µM | 2.01 | 3430 nM | – |
| CN(C)CCCNc1cc(-c2ccc(F)cc2)c(C#N)c2nc3ccccc3n12 | 43 | 11.6 µM | 1.45 | 270 nM | – |
| CCN(CC)CCNc1cc(-c2cccc(F)c2)c(C#N)c2nc3ccccc3n12 | 225 | 124 µM | 1.99 | 550 nM | – |
| N#Cc1c(-c2ccc(C(F)(F)F)cc2)cc(NCCCN2CCOCC2)n2c1nc1ccccc12 | 80.6 | 98.3 µM | 3.79 | 1220 nM | – |
| CCN(CC)CCNc1cc(-c2ccc(F)cc2)c(C#N)c2nc3ccccc3n12 | 226 | 56.5 µM | 1.9 | 250 nM | – |
| N#Cc1c(-c2ccc(C(F)(F)F)cc2)cc(NCCN)n2c1nc1ccccc12 | 3.4 | 5.11 µM | 1.8 | 1490 nM | – |
| CN(C)CCNc1cc(-c2cccc(C(F)(F)F)c2)c(C#N)c2nc3ccccc3n12 | 24.6 | 7.14 µM | 2.45 | 290 nM | – |
| N#Cc1c(C(F)(F)F)cc(NCCN)n2c1nc1ccccc12 | 13 | 40.1 µM | 1.37 | 3090 nM | – |
| CCN(CC)CCCNc1cc(-c2ccc(C(F)(F)F)cc2)c(C#N)c2nc3ccccc3n12 | >633 | – | 2.97 | 300 nM | IC50 (L6; l6): > 190 µM |
| N#Cc1c(-c2ccc(C(F)(F)F)cc2)cc(NCCN2CCCC2)n2c1nc1ccccc12 | 2751 | 146 µM | 2.58 | 53 nM | – |
| N#Cc1c(-c2ccc(C(F)(F)F)cc2)cc(NCCN2CCCCC2)n2c1nc1ccccc12 | 3581 | 193 µM | 3.78 | 54 nM | – |
| C[C@@H]1CC[C@H]2[C@@H](C)C(=O)O[C@@H]3O[C@@]4(C)CC[C@@H]1[C@]32OO4 [ARTEMISININ] | – | – | – | 6 nM | IC50 (Plasmodium falciparum [6]): 3 nM; IC50 (Plasmodium falciparum [7]): 5 nM; IC50 (Plasmodium falciparum [8]): 8 nM |
| N#Cc1c(-c2ccc(C(F)(F)F)cc2)cc(NCCCN)n2c1nc1ccccc12 | 6.8 | 6.26 µM | 1.46 | 920 nM | – |
| CN(C)CCNc1cc(-c2ccc(C(F)(F)F)cc2)c(C#N)c2nc3ccccc3n12 | >1600 | > 210 µM | 2.45 | 130 nM | – |
| CCN(CC)CCCNc1cc(-c2cccc(F)c2)c(C#N)c2nc3ccccc3n12 | 121 | 55.7 µM | 2.02 | 460 nM | – |
| N#Cc1c(-c2cccc(C(F)(F)F)c2)cc(NCCCN)n2c1nc1ccccc12 | 6.9 | 4.33 µM | 1.46 | 630 nM | – |
| OC(c1cc(C(F)(F)F)nc2c(C(F)(F)F)cccc12)C1CCCCN1 (stereo not drawn) [MEFLOQUINE] | – | – | – | – | IC50 (Plasmodium falciparum [4]): 13 nM; IC50 (Plasmodium falciparum [9]): < 40 nM; IC50 (Plasmodium falciparum [8]): 13 nM |
| CN(C)CCNc1cc(-c2cccc(F)c2)c(C#N)c2nc3ccccc3n12 | 7 | 5.88 µM | 1.5 | 840 nM | – |
| Cl.N#Cc1c(-c2ccc(C(F)(F)F)cc2)cc(NCCN2CCOCC2)n2c1nc1ccccc12 | – | – | – | – | microsomal CLint [10]: 65.2 µL/min/mg; microsomal CLint [11]: 109 µL/min/mg; microsomal CLint [12]: 108 µL/min/mg; half-life [13]: 15.9 min; half-life [14]: 16 min; half-life [15]: 26.6 min |
| CCN(CC)CCNc1cc(-c2ccccc2)c(C#N)c2nc3ccccc3n12 | 108 | 120 µM | 1.89 | 1110 nM | – |

| SMILES | Ratio IC50 [1] | IC50 (L6; Rattus norvegicus, L6, 72 h) | logD [2] | IC50 (Plasmodium falciparum [3]) | further results |
| --- | --- | --- | --- | --- | --- |
| CN(C)CCNc1cc(-c2ccc(C(F)(F)F)cc2)c(C#N)c2nc3ccccc3n12.Cl | – | – | – | – | IC50 (L6; l6): 147 µM; Activity (Plasmodium berghei): 0%; IC50 (Plasmodium falciparum [16]): 100 nM |
| COc1cc([C@@H]2c3cc4c(cc3[C@H](O)[C@H]3COC(=O)[C@H]23)OCO4)cc(OC)c1OC [PODOFILOX] | – | 0.009 µM | – | – | – |
| CN(C)CCNc1cc(-c2ccc(F)cc2)c(C#N)c2nc3ccccc3n12 | 70 | 19.6 µM | 1.41 | 280 nM | – |
| CCN(CC)CCNc1cc(-c2ccc(Cl)cc2)c(C#N)c2nc3ccccc3n12 | 683 | 41 µM | 2.54 | 60 nM | – |
| CN(C)CCCNc1cc(-c2cccc(C(F)(F)F)c2)c(C#N)c2nc3ccccc3n12.Cl.Cl | – | – | – | – | IC50 (L6; l6): 19.2 µM; Activity (Plasmodium berghei): 0%; IC50 (Plasmodium falciparum [16]): 490 nM |
| Cl.N#Cc1c(-c2ccc(C(F)(F)F)cc2)cc(NCCCN2CCOCC2)n2c1nc1ccccc12 | – | – | – | – | microsomal CLint [10]: 87 µL/min/mg; microsomal CLint [11]: 166 µL/min/mg; microsomal CLint [12]: 234 µL/min/mg; half-life [13]: 10.4 min; half-life [14]: 7.4 min; half-life [15]: 19.9 min |
| CCN(CC)CCCNc1cc(-c2cccc(C(F)(F)F)c2)c(C#N)c2nc3ccccc3n12.Cl.Cl | – | – | – | – | IC50 (L6; l6): 11.8 µM; Activity (Plasmodium berghei): 0%; IC50 (Plasmodium falciparum [16]): 250 nM |
| CN(C)CCCNc1cc(C(F)(F)F)c(C#N)c2nc3ccccc3n12 | 52.5 | 166 µM | 2.06 | 3160 nM | – |
| CCN(CC)CCCNc1cc(-c2cccc(C(F)(F)F)c2)c(C#N)c2nc3ccccc3n12 | 128 | – | 2.97 | 190 nM | IC50 (L6; l6): 24.3 µM |
| CCN(CC)CCCNc1cc(-c2ccc(Cl)cc2)c(C#N)c2nc3ccccc3n12 | 287 | 48.8 µM | 2.57 | 170 nM | – |
| CCN(CC)CCNc1cc(-c2cccc(C(F)(F)F)c2)c(C#N)c2nc3ccccc3n12 | 243 | 102 µM | 2.94 | 420 nM | – |
| CN(C)CCNc1cc(-c2ccc(Cl)cc2)c(C#N)c2nc3ccccc3n12 | 62.9 | 19.5 µM | 2.05 | 310 nM | – |
| CN(C)CCCNc1cc(-c2ccc(Cl)cc2)c(C#N)c2nc3ccccc3n12 | >1000 | > 210 µM | 2.09 | 210 nM | – |
| N#Cc1c(-c2cccc(C(F)(F)F)c2)cc(NCCN)n2c1nc1ccccc12 | 11.7 | 11.7 µM | 1.8 | 1000 nM | – |
| CCNCCN(CC)c1cc(-c2ccc(C(F)(F)F)cc2)c(C#N)c2nc3ccccc3n12 | 22.9 | 21.5 µM | 3.52 | 940 nM | – |
| CN(C)CCCNc1cc(-c2cccc(C(F)(F)F)c2)c(C#N)c2nc3ccccc3n12 | 474 | 180 µM | 2.49 | 380 nM | – |
| CN(C)CCNc1cc(-c2ccccc2)c(C#N)c2nc3ccccc3n12 | >50 | > 80 µM | 1.48 | 1490 nM | – |
| N#Cc1c(-c2ccc(C(F)(F)F)cc2)cc(NCCN2CCOCC2)n2c1nc1ccccc12 | 68 | 33.3 µM | 3.72 | 490 nM | – |
| CN(C)CCCNc1cc(-c2ccc(C(F)(F)F)cc2)c(C#N)c2nc3ccccc3n12 | 455 | > 200 µM | 2.49 | 440 nM | – |
| CCN(CC)CCNc1cc(C(F)(F)F)c(C#N)c2nc3ccccc3n12 | 63.7 | 121 µM | 2.51 | 1900 nM | – |
| CN(C)CCCNc1cc(-c2ccccc2)c(C#N)c2nc3ccccc3n12 | 71 | 108 µM | 1.52 | 1520 nM | – |
| CN(C)CCCNc1cc(-c2ccc(C(F)(F)F)cc2)c(C#N)c2nc3ccccc3n12.Cl.Cl | – | – | – | – | IC50 (L6; l6): 21.1 µM; Activity (Plasmodium berghei): 30.7%; IC50 (Plasmodium falciparum [16]): 260 nM |
| N#Cc1c(-c2ccccc2)cc(NCCCN)n2c1nc1ccccc12 | 5.2 | 11.9 µM | 0.49 | 2270 nM | – |
| CCN(CC)CCCNc1cc(C(F)(F)F)c(C#N)c2nc3ccccc3n12 | 42.2 | 87.8 µM | 2.54 | 2080 nM | – |

— ChEMBL document CHEMBL1799932, “Antimalarial pyrido[1,2-a]benzimidazoles” (J Med Chem, 2011)
